# Assay results reported in patent publication US10258614B2, “Compositions and methods for treating schizophrenia” (priority 2014, dated 2019).
# Values joined by “and” are separate entries in the source; they are usually repeats but may differ in a detail not shown here. Equal entries are not always repeated. Structures can show the parent of a compound that is named as a salt. Where two headings read alike, the source gives them in different places.
# Legend:
# QT/QTc interval = assay: Analysis of relationship between QT/QTc and plasma concentrations; format: in vivo, human
# Procedure: Increases in QTc interval were observed and seemed to be related to the exposure to Compound (I) and its metabolite BFB-520. […] A further analysis of the relationship between QT/QTc and Compound (I) and BFB-520 concentrations was performed.
# in vivo [1] = assay: in vivo; design: species or system monkeys; conditions: monkey
# Procedure: (§1) Pharmacokinetic (PK) studies of Compound (I) have been performed particularly in rats and monkeys. Following a single oral administration, Compound (I) was rapidly absorbed. Plasma radioactivity peaked between 0.63 and 2.75 hours in male rats, and between 3 and 3.5 hours in male monkeys. […] The elimination half-lives of radioactivity from plasma were 45.13 to 51.52 hours in rats and 174.74 to 184.78 hours in monkeys. The elimination half-lives of unchanged Compound (I) were 1.68 to 2.06 hours in rats, and 1.68 to 2.57 hours in monkeys.
# (§2) After single administration of BFB-520 in monkeys, exposure levels of BFB-520, Compound (I) and BFB-999 increased with a dose increment larger than the proportionate one. […] Finally, the brain transfer of Compound (I) was studied with male rats after oral administration (10 mg/kg). […] The Kp value (brain/plasma concentration ratio) was 1.38 mL/g.
# (§3) The major route of elimination of radioactivity in rats and monkeys following a single oral or intravenous administration was via the feces. The excretion to bile was 44.2% within 48 hours after a single oral administration to bile duct cannulated rats. Urinary excretion rates of radioactivity were about 35% in rats and monkeys. […] The enterohepatic circulation rate was determined to be about 27% after intraduodenal administration of bile samples from ^14C-Compound (I)-treated rats.
# [2] = system: methamphetamine-induced hyperlocomotion; assay: Methamphetamine-induced hyperlocomotion; format: in vivo, male Wistar rats; conditions: for methamphetamine-induced hyperlocomotion: male Wistar rats
# Procedure: (§4) Compound (I) was tested in male Wistar rats in several behavioral paradigms designed to evaluate the potential for producing antipsychotic activity of drugs in humans. Compound (I) inhibited methamphetamine-, apomorphine-, and phencyclidine-induced hyperlocomotion in a similar manner to other antipsychotics.
# 5-HT2A receptors [3] = target: 5-HT2A receptors (Homo sapiens, UniProt P28223); assay: In vitro receptor binding studies
# 5-HT2A receptors (Homo sapiens, UniProt P28223), sequence (P28223 whole entry): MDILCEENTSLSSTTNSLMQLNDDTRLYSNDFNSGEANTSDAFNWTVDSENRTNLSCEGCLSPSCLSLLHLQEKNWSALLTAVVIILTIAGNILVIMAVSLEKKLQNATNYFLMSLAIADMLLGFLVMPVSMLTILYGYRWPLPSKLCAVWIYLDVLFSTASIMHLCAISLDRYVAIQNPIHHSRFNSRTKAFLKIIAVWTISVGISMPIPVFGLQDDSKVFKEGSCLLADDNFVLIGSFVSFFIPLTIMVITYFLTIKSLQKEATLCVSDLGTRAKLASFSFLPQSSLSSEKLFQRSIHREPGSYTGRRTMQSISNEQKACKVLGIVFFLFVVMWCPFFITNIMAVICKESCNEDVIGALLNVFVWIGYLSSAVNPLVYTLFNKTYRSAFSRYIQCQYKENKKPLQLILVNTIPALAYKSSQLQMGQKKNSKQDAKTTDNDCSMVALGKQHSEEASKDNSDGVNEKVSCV
# [4] = Part 1 single dose MR formulation pharmacokinetic study in healthy CYP2D6 EM male subjects; format: in vivo, human; design: Cmax increase, food effect: unit not given beside the values; conditions: for AUC(0-t) / Cmax / half-life: plasma
# Excerpt: Part 1 of this study was designed to characterize and compare the pharmacokinetic (PK) profile of Compound (I) when administered as MR formulations, and food effects, following a single dose administration in a 6-way, within subject, crossover design.
# Part 1 of the study is an open-label, non-randomized, single dose, 6-period crossover design in 12 healthy CYP 2D6 EM male subjects. For Part 1, subjects will receive the following regimens in a non-randomised manner:
# Regimen A: MR Formulation prototype 1: 32 mg Compound (I) slow release administered in the fasted state
# A Two-Part Study Designed to Evaluate the Pharmacokinetic Profile of Compound (I) and its Main Metabolites Following Single and Multiple Dose Modified Release Prototype Formulation Administration in Healthy CYP2D6 Extensive Metabolizer Male and Female Subjects, and to Evaluate the Relationship Between the Pharmacokinetic Profile of Compound (I) and its Main Metabolites and Cardiovascular Parameters.
# IKr current = IKr current (Homo sapiens, UniProt Q12809); assay: In vitro electrophysiology, cultured cells expressing cloned cardiac ion channels
# IKr current, sequence (Q12809 whole entry): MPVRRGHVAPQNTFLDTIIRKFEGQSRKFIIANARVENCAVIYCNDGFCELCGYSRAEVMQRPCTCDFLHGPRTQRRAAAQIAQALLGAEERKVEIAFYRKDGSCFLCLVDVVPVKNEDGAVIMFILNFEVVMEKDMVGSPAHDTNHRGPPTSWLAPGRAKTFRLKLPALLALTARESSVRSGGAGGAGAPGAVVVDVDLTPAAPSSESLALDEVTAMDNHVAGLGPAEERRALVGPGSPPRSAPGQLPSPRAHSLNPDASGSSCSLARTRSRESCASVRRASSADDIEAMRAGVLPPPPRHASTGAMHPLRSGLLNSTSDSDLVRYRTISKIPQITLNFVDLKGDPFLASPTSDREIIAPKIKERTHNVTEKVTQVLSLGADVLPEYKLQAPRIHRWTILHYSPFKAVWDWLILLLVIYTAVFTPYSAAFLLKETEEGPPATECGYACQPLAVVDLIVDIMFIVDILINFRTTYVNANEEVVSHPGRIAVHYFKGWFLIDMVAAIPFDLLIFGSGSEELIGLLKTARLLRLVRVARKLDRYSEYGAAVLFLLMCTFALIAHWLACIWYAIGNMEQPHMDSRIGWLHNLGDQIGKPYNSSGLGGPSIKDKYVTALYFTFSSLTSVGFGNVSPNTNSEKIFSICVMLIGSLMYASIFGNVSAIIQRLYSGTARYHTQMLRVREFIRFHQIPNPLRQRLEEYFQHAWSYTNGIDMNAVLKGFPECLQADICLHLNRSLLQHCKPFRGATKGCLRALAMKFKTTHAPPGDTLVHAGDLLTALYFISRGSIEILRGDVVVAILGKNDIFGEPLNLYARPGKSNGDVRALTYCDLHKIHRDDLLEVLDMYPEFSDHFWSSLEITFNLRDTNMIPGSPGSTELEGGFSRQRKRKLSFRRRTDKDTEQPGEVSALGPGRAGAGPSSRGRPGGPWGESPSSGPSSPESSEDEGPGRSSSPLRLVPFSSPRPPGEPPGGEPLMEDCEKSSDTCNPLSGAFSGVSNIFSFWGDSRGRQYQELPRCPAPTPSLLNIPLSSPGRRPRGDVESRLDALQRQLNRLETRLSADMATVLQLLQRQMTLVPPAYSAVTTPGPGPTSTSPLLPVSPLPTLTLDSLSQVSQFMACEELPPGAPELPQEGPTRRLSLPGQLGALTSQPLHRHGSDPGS
# Excerpt: (§5) The effects of Compound (I) on the cardiovascular system were examined in in vitro and in vivo studies.
# sigma2 receptors [5] = target: sigma2 receptors (Homo sapiens, UniProt Q5BJF2); assay: In vitro receptor binding studies
# sigma2 receptors (Homo sapiens, UniProt Q5BJF2), sequence (Q5BJF2 whole entry): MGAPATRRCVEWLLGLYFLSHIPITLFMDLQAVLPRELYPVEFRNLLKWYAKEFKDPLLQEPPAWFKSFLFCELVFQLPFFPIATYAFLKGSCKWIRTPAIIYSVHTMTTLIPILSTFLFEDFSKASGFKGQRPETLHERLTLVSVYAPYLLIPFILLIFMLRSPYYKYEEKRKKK
# [6] = system: human liver microsomes, cytochromes P450
# [7] = system: guinea pig papillary muscle
# Excerpt: as §5
# CYP2D6 = CYP2D6 (Homo sapiens, UniProt P10635); assay: Inhibition of human P450 isoforms; format: in vitro ADME
# CYP2D6, sequence (P10635 whole entry, canonical isoform): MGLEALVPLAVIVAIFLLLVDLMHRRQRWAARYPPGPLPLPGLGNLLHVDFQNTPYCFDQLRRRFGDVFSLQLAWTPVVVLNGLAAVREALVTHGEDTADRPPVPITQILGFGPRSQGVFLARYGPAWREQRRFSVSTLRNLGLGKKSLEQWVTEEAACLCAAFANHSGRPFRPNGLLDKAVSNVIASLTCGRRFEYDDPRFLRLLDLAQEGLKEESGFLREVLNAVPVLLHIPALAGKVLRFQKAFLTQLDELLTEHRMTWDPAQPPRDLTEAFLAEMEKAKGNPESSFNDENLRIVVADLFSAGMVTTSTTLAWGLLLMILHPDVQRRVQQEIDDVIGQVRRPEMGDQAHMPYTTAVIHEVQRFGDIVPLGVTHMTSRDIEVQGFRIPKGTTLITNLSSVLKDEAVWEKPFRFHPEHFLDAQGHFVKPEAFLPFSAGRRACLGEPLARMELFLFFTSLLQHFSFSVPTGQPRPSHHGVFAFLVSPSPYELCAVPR
# [8] = system: human P450 isoforms (CYP1A2, 2A6, 2B6, 2C8/9, 2C19, 2E1 and 3A4); assay: Inhibition of human P450 isoforms; format: in vitro ADME
# in vivo [9] = assay: in vivo; design: species or system male rats; conditions: rat, po, 10 mg/kg
# Procedure: as §2
# al-adrenergic receptors = assay: In vitro receptor binding studies
# [10] = system: phencyclidine-induced hyperlocomotion; assay: Phencyclidine-induced hyperlocomotion; format: in vivo; conditions: male Wistar rats
# Procedure: as §4
# in vivo [11] = assay: in vivo; design: species or system rats; conditions: rat
# Procedure: as §1
# Food and gender effects were also assessed in rats.
# as §3
# rats = assay: Safety pharmacology studies (general activity and behavior, CNS, respiratory, gastrointestinal, water and electrolyte excretion); format: in vivo
# Procedure: In a series of safety pharmacology studies, the effects of Compound (I) on general activity and behavior, the CNS, respiratory function, gastrointestinal system, and water and electrolyte excretion were examined in rats at an oral dose range of 1 to 30 mg/kg Compound (I) induced various changes in general activity and behavior. These clinical signs were observed between 0.25 to 4 hours post-dosing and disappeared by 6 hours post-dosing. Compound (I) inhibited CNS function and decreased thresholds for electroshock-induced convulsion.
# sigma2 receptors [12] = assay: In vivo functional tests
# Excerpt: (§6) In in vivo functional tests, Compound (I) acted as an antagonist at sigma2 and 5-HT2A receptors.
# 5-HT2A receptors [13] = assay: In vivo functional tests
# Excerpt: as §6
# DA receptors = assay: In vitro receptor binding studies; conditions: read-out: IC50 (affinity for DA receptors)
# [14] = system: apomorphine-induced hyperlocomotion; assay: Apomorphine-induced hyperlocomotion; format: in vivo; conditions: male Wistar rats
# Procedure: as §4
# [15] = system: PCP-induced social interaction impairment; assay: PCP-induced social interaction impairment; format: in vivo, male Wistar rats; conditions: after repeated administration
# [16] = system: dopamine turnover, DA metabolites DOPAC and HVA; assay: Dopamine turnover and DA metabolite output after oral administration; format: in vivo
# Excerpt: as §6
# sleep architecture = assay: CYR-101C01 Phase 2a study, sleep recordings (PSG) and PSQI; format: in vivo, human
# [17] = system: spontaneous alternation behavior impairment induced by MK-801; assay: Impairment of spontaneous alternation behavior induced by MK-801; design: species or system male Wistar rats; conditions: rat, in vivo
compound,measurement,setting,value
O=C1c2ccccc2CN1CC1CCN(CC(O)c2ccc(F)cc2)CC1 (stereo not drawn) [BFB-520],Cmax that should not be exceeded to avoid QT prolongation,"QT/QTc interval; human, in vivo",≤ 12 ng/mL
same,time to maximum concentration post-dosing,in vivo [1],≤ 4 h
same,methamphetamine-induced hyperlocomotion,[2],inhibited
same,ED50 compared with Compound (I),[2]; methamphetamine-induced hyperlocomotion,higher than that of Compound (I)
same,affinity for 5-HT2A receptors compared with Compound (I),5-HT2A receptors [3],lower
same,Half-life Fed to Fasted ratio,"[4]; human, in vivo",0.8
same,dose proportionality of PK,"[4]; human, in vivo",less so
same,IC50,IKr current,181 nM
same,affinity for σ2 receptors compared with Compound (I),sigma2 receptors [5],lower affinity
same,metabolizing enzymes,[6],metabolized by CYP2D6 and CYP3A4
same,concentration that prolonged the action potential duration (APD),[7],≥ 100 nM
"O=C(CN1CCC(CN2Cc3ccccc3C2=O)CC1)c1ccc(F)cc1 [Compound (I), 2-((1-(2-(4-Fluorophenyl)-2-oxoethyl)piperidin-4-yl)methyl)isoindolin-1-one monohydrochloride dihydrate]",Cmax,"QT/QTc interval; human plasma, read-out: Cmax that should not be exceeded to avoid QT prolongation",≤ 80 ng/mL
same,inhibitory effect on CYP2D6,CYP2D6,weak inhibitory effect
same,"inhibitory effects on human P450 isoforms (CYP1A2, 2A6, 2B6, 2C8/9, 2C19, 2E1 and 3A4)",[8],No remarkable inhibitory effects
same,time of peak plasma radioactivity,"in vivo [1]; male, po",3 to 3.5 h
same,urinary excretion rate of radioactivity,in vivo [1],about 35%
same,bioavailability,in vivo [1]; po,≥ 90%
same,half-life,in vivo [1]; po,1.68 to 2.57 h
same,oral absorption rate,in vivo [1]; po,70.0-99.9%
same,methamphetamine-induced hyperlocomotion,[2],inhibited
same,Ki,5-HT2A receptors [3]; 5-HT2A receptor,7.53 nM
same,Cmax,in vivo [9]; male,3160 ng/mL and 4950 ng/g
same,Kp value (brain/plasma concentration ratio),in vivo [9],1.38 mL/g
same,Ki,al-adrenergic receptors,14.4 nM
same,phencyclidine-induced hyperlocomotion,[10],inhibited
same,dose proportionality of PK,[4]; MR formulation under fasted conditions,generally dose proportional
same,"Cmax increase, food effect","[4]; MR formulation, fed vs fasted",~2 ×
same,Half-life Fed to Fasted ratio,"[4]; MR formulation, fed vs fasted",0.5
same,"Tiag, Median","[4]; Period 1, 32 mg Slow Release, Fasted, plasma analyte",0 h
same,Tmax,"[4]; male, human, oral, Period 1, 32 mg Slow Release, Fasted, plasma analyte, read-out: Tmax, Median",2.25 h
same,AUC(0-t),"[4]; male, human, oral, 32 mg, Period 1, 32 mg Slow Release, Fasted, plasma analyte, read-out: AUClast, Mean",212 ng·h/mL
same,AUC(0-t),"[4]; male, human, oral, 32 mg, Period 1, 32 mg Slow Release, Fasted, plasma analyte, read-out: AUClast, Median",220 ng·h/mL
same,Cmax,"[4]; male, human, oral, 32 mg, Period 1, 32 mg Slow Release, Fasted, plasma analyte, read-out: Cmax, Mean",22.5 ng/mL
same,Cmax,"[4]; male, human, oral, 32 mg, Period 1, 32 mg Slow Release, Fasted, plasma analyte, read-out: Cmax, Median",23.7 ng/mL
same,half-life,"[4]; male, human, oral, 32 mg, Period 1, 32 mg Slow Release, Fasted, plasma analyte, read-out: t½, Mean (converted)",6.26 h
same,half-life,"[4]; male, human, oral, 32 mg, Period 1, 32 mg Slow Release, Fasted, plasma analyte, read-out: t½, Median (converted)",5.35 h
same,half-life,"[4]; male, human, oral, MR formulation under fasted conditions, read-out: Half-life",3 to 8 h
same,recovery of given radioactivity in carcass,"in vivo [11]; male, 168 h",0.7%
same,time of peak plasma radioactivity,"in vivo [11]; male, po",0.63 to 2.75 h
same,enterohepatic circulation rate,in vivo [11],about 27%
same,"pharmacokinetic parameters for total radioactivity, female vs male rats",in vivo [11],comparable
same,urinary excretion rate of radioactivity,in vivo [11],about 35%
same,bioavailability,in vivo [11]; po,52.4 to 64.5%
same,half-life,in vivo [11]; po,1.68 to 2.06 h
same,oral absorption rate,in vivo [11]; po,90.3-94.7%
same,transfer into milk,in vivo [11]; po,rapidly transferred into milk and were slowly eliminated
same,CNS function,rats; oral 1 to 30 mg/kg,inhibited
same,thresholds for electroshock-induced convulsion,rats; oral 1 to 30 mg/kg,decreased
same,time by which clinical signs disappeared post-dosing,rats; oral 1 to 30 mg/kg,≤ 6 h
same,effects at high doses,"rats; oral, high doses (>10 mg/kg)","affected respiratory function, inhibited gastric emptying, damaged the gastrointestinal membrane, decreased urine volume, and increased urine potassium excretion"
same,functional activity at sigma2 receptors,sigma2 receptors [12],antagonist
same,functional activity at 5-HT2A receptors,5-HT2A receptors [13],antagonist
same,IC50,DA receptors,> 1000 nM
same,apomorphine-induced hyperlocomotion,[14],inhibited
same,PCP-induced social interaction impairment,[15],significantly ameliorated
same,IC50,IKr current,325 nM
same,monoamine levels,[16]; effective dose levels in animal models of antipsychotic activity,did not affect
same,dopamine turnover in the accumbens and striatum,[16]; oral administration,slightly increased
same,output of DA metabolites such as DOPAC and HVA in prefrontal cortex,"[16]; oral, high dose levels",increased the output
same,"sleep initiation parameters (sleep onset latency, latency to persistent sleep)",sleep architecture; patients,improved
same,slow wave sleep (SWS) in the first third of the night,"sleep architecture; patients, PSG",significantly increased
same,slow wave sleep (SWS) in the last third of the night,"sleep architecture; patients, PSG",decreased
same,subjective sleep quality as measured by PSQI,sleep architecture; vs placebo,improvement was greater with Compound (I) than with placebo although not statistically significant
same,Ki,sigma2 receptors [5]; sigma2 receptor,8.19 nM
same,metabolizing enzymes,[6],mainly metabolized by enzymatic reaction other than CYP isoforms
same,impairment of spontaneous alternation behavior induced by MK-801,[17],improved
